Test system: rats with ovariectomy-induced osteoporosis
Assay: Ovariectomy-induced osteoporosis model
Type: in vivo, rats (strain Sprague-Dawley)
Conditions: 3 months
Method: In order to determine the efficacy against osteoporosis in rats (strain Sprague-Dawley), two animal test models were constructed to illustrate the outcomes against normal osteoporosis or estrogen-deficiency-induced osteoporosis, respectively.
In the animal test models, retinoic acid-induced osteoporosis model was used as normal osteoporosis model and ovariectomy-induced model was used as the model for osteoporosis induced by estrogen deficiency.
The following experiment was conducted to test the effects of the pharmaceutical composition of the present invention on rats with ovariectomy-induced osteoporosis in terms of bone mineral contents, bone mineral density, biomechanical index and bone histomorphometry as well as illustrate the claimed efficacy of the pharmaceutical composition.
The ovariectomized animal model was constructed as follows. Anesthesia of the rats was conducted by intra-abdominal injection of 20% urethane according to the dosage of 1 g/kg. The rats were then placed face down, incised in both sides of the spinal cord under aseptic condition, and their ovaries were removed to attain an osteoporosis animal model. For Normal Group, a piece of fat was removed on both sides of back spinal cord. After five days, 72 animals were chosen from the living rats and randomly divided into 9 groups of 8 animals. Administrations were given according to the following conditions:
Normal Group (pseudo-operation): CMC-Na solution 10 ml/kg/d
Affected Group: CMC-Na solution 10 ml/kg/d
Positive Group (Nylestriol): batch no. 020701, provided by Shianghai Hualian Pharmaceuticals, 1 mg/kg, once a week
Subgroup I—Extract of Semen Cuscutae and Fructus Cindii/Composite Groups
(Medium Dosage): 200 mg/kg
Subgroup II—Sole Extract of Semen Cuscutae (Unitary Group)
Subgroup III—Low Dosage Plus Calcium-containing Substance 100 mg/kg, 200 mg/kg in Total
Subgroup IV—Unitary Group Plus Calcium-containing Substance in a Ratio of 70/30, 200 mg/kg in Total
The animals were continuously administered for 3 months. The effects of the pharmaceutical composition of the present invention on morphological alteration of the femur of rats were analyzed using a Dual Energy X-Ray Absorptiometry (DEXA) two days before end of the experiment under the anesthesia of ether. The femur and tibia bone were peeled and measured. Those pieces were soaked in 4% glutaraldehyde (0.1M, pH 7.3) for more than 24 hours. Later on, the vector side of the femur was hacksawed with dental diamond saw blades (grindstone). One piece from each animal was removed and cleaned in 10% sodium hypochlorite solvent for 6 hours, followed by ultra sound wash for 15 minutes.
It was then dehydrated by ethanol-gradient, soaked in ethyl ether, air dried, and then treated with ion sputtering coating (IB-3). The BMD was assessed by dual-energy X-ray absorptiometry (DEXA), and the SX-40 X-ray bone densitometer on 20,000 volt. The graphs were taken by CMIAS-98A image analyzer.
The bones were dried at […] in the oven and then weighed to get the dry weight. The dry bones were carbonated and then incinerated in 800° C. muffle furnace for 6 hours. The ashes were weighed and then dissolved in 6N HCl, in order to measure the Ca and P levels.

`C#C[C@]1(O)[C@H](O)C[C@H]2[C@@H]3CCc4cc(OC5CCCC5)ccc4[C@H]3CC[C@@]21C` [Nylestriol] was tested, and the “Ash Mass Index” value (1 mg/kg once a week) was 0.649 ± 0.024 g/g, the EI (1 mg/kg once a week) was 28.55 ± 7.03 KN · mm^2 and the “K (spring strength)” value (1 mg/kg once a week) was 248.91 ± 53.04 N/mm. For the same compound, the “Pb (maximum strength)” value (1 mg/kg once a week) was 97 ± 9.4 N, the “δb (maximum torsion index)” value (1 mg/kg once a week) was 0.54 ± 0.17 mm and the “σb (tensile strength)” value (1 mg/kg once a week) was 147.79 ± 13.95 MPa. The “BMD level, Femur” value (DEXA, femoral head, 1 mg/kg/w) was 0.353 ± 0.030 g/cm^2, the “BMD level, Lumbar vertebra” value (DEXA, 1 mg/kg/w) was 0.263 ± 0.015 g/cm^2 and the Ca level (bone ash, 1 mg/kg once a week) was 0.254 ± 0.029 g/g. For the same compound, the P level (bone ash, 1 mg/kg once a week) was 0.130 ± 0.014 g/g, the “Average Trabecular Width” value (femur, 1 mg/kg/w) was 146.89 ± 22.27 μm and the “Percentage of Trabecular Area” value (femur, 1 mg/kg/w) was 0.9148 ± 0.0371.
